According to patent US20030040485A1, “alpha/beta-adrenoceptors blockers and angiotensin converting enzyme inhibitors derived from hydroxyphenyl carboxylic acid and alcohol” (priority 2001, published 2003):

Experiments:
[1] = target: T1, angiotensin converting enzyme (ACE) (Rattus norvegicus, UniProt P47820); assay: ACE activity value on tissue (rat lung membrane, Hip-His-Leu, fluorometric); format: biochemical; settings: mean of three samples
T1 construct: Centrifuged 250-300 mg lung tissue; from tissue; host or cells: rat lung membrane fraction
T1 sequence (P47820 36-1313): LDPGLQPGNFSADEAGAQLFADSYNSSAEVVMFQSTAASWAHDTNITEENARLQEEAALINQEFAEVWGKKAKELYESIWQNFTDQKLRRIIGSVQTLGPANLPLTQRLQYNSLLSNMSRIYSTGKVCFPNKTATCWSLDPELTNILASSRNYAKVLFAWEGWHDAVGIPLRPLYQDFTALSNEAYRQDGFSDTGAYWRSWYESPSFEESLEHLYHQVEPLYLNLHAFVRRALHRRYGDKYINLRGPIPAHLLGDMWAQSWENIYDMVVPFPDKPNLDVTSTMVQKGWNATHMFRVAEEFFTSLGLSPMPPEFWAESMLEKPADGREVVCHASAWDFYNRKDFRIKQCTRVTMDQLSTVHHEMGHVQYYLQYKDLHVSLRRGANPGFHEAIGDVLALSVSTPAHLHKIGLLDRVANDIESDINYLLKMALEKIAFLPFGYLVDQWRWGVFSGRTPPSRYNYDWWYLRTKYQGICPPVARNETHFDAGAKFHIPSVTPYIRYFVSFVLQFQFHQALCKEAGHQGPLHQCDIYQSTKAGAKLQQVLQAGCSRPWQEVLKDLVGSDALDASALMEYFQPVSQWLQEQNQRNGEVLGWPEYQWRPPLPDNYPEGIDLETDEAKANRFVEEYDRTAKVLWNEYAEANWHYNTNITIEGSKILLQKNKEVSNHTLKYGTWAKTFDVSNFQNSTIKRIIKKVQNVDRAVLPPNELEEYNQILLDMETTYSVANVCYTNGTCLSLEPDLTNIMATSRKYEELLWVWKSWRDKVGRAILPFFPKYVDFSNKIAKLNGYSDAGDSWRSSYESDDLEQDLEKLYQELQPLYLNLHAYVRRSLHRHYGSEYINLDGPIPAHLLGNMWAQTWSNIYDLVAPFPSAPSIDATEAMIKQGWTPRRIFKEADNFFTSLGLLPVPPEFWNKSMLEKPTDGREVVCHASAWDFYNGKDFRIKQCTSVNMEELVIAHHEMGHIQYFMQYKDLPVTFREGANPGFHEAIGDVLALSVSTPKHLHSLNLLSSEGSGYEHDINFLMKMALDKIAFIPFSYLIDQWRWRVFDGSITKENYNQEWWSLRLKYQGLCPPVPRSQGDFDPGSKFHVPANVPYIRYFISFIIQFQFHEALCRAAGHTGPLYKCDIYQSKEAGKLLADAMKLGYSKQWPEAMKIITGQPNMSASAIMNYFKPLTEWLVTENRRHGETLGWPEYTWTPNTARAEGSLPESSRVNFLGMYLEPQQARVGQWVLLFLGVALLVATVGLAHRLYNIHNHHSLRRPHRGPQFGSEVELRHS
Description: Centrifuged 250-300 mg lung tissue, 3 ml extracted liquid (10 mmol/L HEPES, 125 mmol/L NaCl, pH7.4) under 12000 g for 20 minutes at 4° C. by Teflon-glass homogenizer, the cell membrane was obtained. The 3 ml homogenized liquid was added into twice, before and after centrifuged. Then the Lowry's method was adopted to determine the protein content in the membrane. Mixing 15 minute of liquid and 30 mmol/L Hip-His-Leu solution at 37° C. Fluorometric was used to determine the Hippurate content. test compounds (10^−8M, 10^−7M, 10^−6M) dissolved in PBS normal saline and used as control group. Then ACE activity inhibition rate was determined.

α1-adrenoceptor (aorta) = assay: α-adrenoceptor antagonism, isolated rat aorta, pA2 vs norepinephrine; design: species or system Wistar rat; settings: Schild plot, mean ± SEM of six to eight experiments
Description: Vascular α-adrenoceptor blocking activity was evaluated in the Wistar rat aorta preparation. Isolated rat aorta preparations were mounted in organ bath and suspended in Krebs solution at 37° C. […] or 75 mM KCl was added to the bath medium after a control concentration-response curve to norepinephrine had been obtained. The tissue was exposed to test compounds for 30 min before rechallenging with norepinephrine. Inhibitions were expressed as percentages of the maximum contraction obtained by the challenge of the tissues with norepinephrine. The 70 mM NaCl on 75 mM KCl solution may to replace with equimolar KCl, if necessary.
The methods published by Huang Y C. et. al. in J Cardiovasc Pharmacol.34, pp.10-20 (1999) and Drug Devel Res. 47, 77-89 (1999). Through referenced and modified method to evaluate, test compounds whether have α1-adrenergic and sertoninergic effect.
Isolated Wistar rat aorta preparations were mounted in organ bath and suspended in Krebs solution (NaCl, 118 mM, KCl, 4.8 mM; CaCl,2.5 mM; MgSO4,1.2 mM; K2PO4,1.2 Mm; […] Mm; glucose, 11 mM) at 37° C. under 1 g resting tension.
Upon balancing for 60 minutes, 10^−10-10^−4 M norepinephrine is administered directly from low concentration to high using 0.5 log unit to gradually increase until the maximum reaction is reached, and this act as the control unit. Then different concentrations of the synthetic testing compounds, 10^−7 M, 10^−6 M, or 10^−5M, are used, and upon 30 minutes of reaction, norepinephrine is used again to complete the cumulative dose. The EC50 value of blocking […] may be obtained from observation of the suppressing effects caused by different concentrations of the synthetic testing compound.
The equation is as follows: […]

Structure (SMILES) | Inhibitory activity of ACE, In Rat lung ([1]; 10^−6M) [%] | Inhibitory activity of ACE, In Rat lung ([1]; 10^−7M) [%] | Inhibitory activity of ACE, In Rat lung ([1]; 10^−8M) [%] | α1 pA2 value, Aorta (α1-adrenoceptor (aorta))
CCOC(=O)C(CCc1ccccc1)NC(C)C(=O)N1CCCC1C(=O)OCc1ccc(OCC(O)CNC(C)(C)C)c(OC)c1 (stereo not shown) [compound 7, Vanynolpril] | 81 | 68 | 31 | –
CCOC(=O)C(CCc1ccc(OCC(O)CNCCOc2ccccc2OC)cc1)NC(C)C(=O)N1CCCC1C(=O)O (mixture of isomers) [compound 6, Labetapril] | 84 | 72 | 33 | 6.93
